Source: PubChem BioAssay AID1919013 (Molecular Pharmacology Branch, DTP, NCI, 2023)
pIC50: −log10 of the molar value.

Test system: LG0703-F498-PDC complex spheroid growth
Assay: Anticancer human tumor LG0703-F498-PDC patient-derived lung adenocarcinoma cell line growth inhibition [AhR]
Settings: for pIC50: curve of first compound; for viability, T/C: stronger effect = lower value
Description: Multicellular complex tumor spheroid response to aryl hydrocarbon receptor antagonists in combination with a variety of drugs and investigational agents in selected tumor cell lines
The current study was undertaken to assess response to aryl hydrocarbon receptor antagonists in combination with standard-of-care drugs and investigational agents in solid tumor complex spheroid models. Complex spheroids include a stromal component modeled by human endothelial cells (HUVEC) and fibroblasts modeled by human mesenchymal stem cells (MSCs). The concentration ranges selected for each drug and investigational agent were based upon clinically achievable concentrations if the clinical Cmax of the agent was known.
Compounds. The drugs and investigational agents: BAY 2416964 (NSC825713), GNF351 (NSC835774), CH-223191 (NSC835775), CPI-455 (NSC825282), aza-TdCyd (NSC777586), decitabine (NSC127716), belinostat (NSC758774), entinostat (NSC756642), pevonedistat (NSC761192), tazemetostat (NSC777109), talazoparib (NSC765396), olaparib (NSC753686), selinexor (NSC780203), nedisertib (M3814, NSC802822), bortezomib (NSC756655), venetoclax (NSC766270), doxorubicin (NSC123127), elimusertib (BAY189344, NSC800525), ceralasertib (AZD6738, NSC777638), TAK-243 (NSC785004), alisertib (NSC759677), etoposide (NSC141540), topotecan (NSC609699), eribulin (NSC707389), gemcitabine (NSC613327), carboplatin (NSC241240), cisplatin (NSC119875), and SN-38 (NSC673596) were obtained from the National Cancer Institute (NCI) Developmental Therapeutics Program Chemical Repository (32). The FDA-approved anticancer drug set is available from the Developmental Therapeutics Program at https://dtp.cancer.gov/organization/dscb/obtaining/available plates.htm. […] The stock solutions were prepared in dimethyl sulfoxide (DMSO, Sigma-Aldrich, St. Louis, MO, cat. D2650), except for the platinum compounds which were prepared in saline (Quality Biological, Gaithersburg, MD, cat. 114-055-101), at 800-fold the tested concentration and stored at -70 degrees C prior to their use. All drugs and investigational agents were tested over a range starting from a high concentration at or near the clinical Cmax and decreasing in half-log increments. If the clinical Cmax for an agent had not been determined, the highest concentration tested was 10 microM (Table 1).
Cell Culture. All cells were maintained in an incubator at 37 degrees C and 5% CO2 with 95% humidity. The PDC lines were cultured according to standard operating procedures established by the NCI PDMR (https://pdmr.cancer.gov). Briefly, all PDCs were thawed and cultured in Matrigel-coated flasks prepared with a working solution of 1X Ham's F-12 nutrient mix, without supplementation (Invitrogen, Waltham, MA, cat. 11765054), 100 U/mL penicillin-streptomycin (Invitrogen, cat. 15140122), and 2.5% Matrigel (Corning Inc., Corning, NY, cat. 354248) for the first three passages. All PDCs were cultured in complete DMEM/F-12 media containing advanced DMEM/F-12 (Invitrogen, cat. 12634028), 4.9% defined fetal bovine serum, heat inactivated (HyClone Laboratories Inc., Logan, UT, cat. SH30070.03HI), 389 ng/mL hydrocortisone (Sigma-Aldrich, cat. H4001), 9.7 ng/mL human EGF recombinant protein (Invitrogen, cat. PHG0313), 23.4 microg/mL adenine (Sigma-Aldrich, cat. A2786), 97.3 U/mL penicillin-streptomycin (Invitrogen, cat. 15140122), 1.9 mM L-glutamine (Invitrogen, cat. 25030081), and 9.7 microM Y-27632 dihydrochloride (Tocris Bioscience, Bristol, United Kingdom, cat. 1254). The PDCs were cultured in complete DMEM/F12 media without 10 microM Y-27632 dihydrochloride for at least two passages prior to the screen. The established cell lines NCI-H1341 and […] were cultured in DMEM/F-12, HEPES (Invitrogen, cat. 11330032), 5% defined fetal bovine serum (HyClone Laboratories Inc., cat. SH30070.03), ITS premix universal culture supplement [insulin (5 microg/mL), transferrin (5 microg/mL), and selenious acid (5 ng/mL)] […]

[1] = second compound 0.1 µM, first compound 0.0316 µM
[2] = second compound 0.1 µM, first compound 0.1 µM
[3] = second compound 0.1 µM, first compound 0.316 µM
[4] = second compound 0.1 µM, first compound 1 µM
[5] = second compound 0.1 µM, first compound 3.16 µM
[6] = second compound 0.1 µM, first compound 10 µM
[7] = second compound 0.316 µM, first compound 0.0316 µM
[8] = second compound 0.316 µM, first compound 0.1 µM
[9] = second compound 0.316 µM, first compound 0.316 µM
[10] = second compound 0.316 µM, first compound 1 µM
[11] = second compound 0.316 µM, first compound 3.16 µM
[12] = second compound 0.316 µM, first compound 10 µM
[13] = second compound 1 µM, first compound 0.0316 µM
[14] = second compound 1 µM, first compound 0.1 µM
[15] = second compound 1 µM, first compound 0.316 µM
[16] = second compound 1 µM, first compound 1 µM
[17] = second compound 1 µM, first compound 3.16 µM
[18] = second compound 1 µM, first compound 10 µM
[19] = second compound 3.16 µM, first compound 0.0316 µM
[20] = second compound 3.16 µM, first compound 0.1 µM
[21] = second compound 3.16 µM, first compound 0.316 µM
[22] = second compound 3.16 µM, first compound 1 µM
[23] = second compound 3.16 µM, first compound 3.16 µM
[24] = second compound 3.16 µM, first compound 10 µM
[25] = second compound 10 µM, first compound 0.0316 µM
[26] = second compound 10 µM, first compound 0.1 µM
[27] = second compound 10 µM, first compound 0.316 µM
[28] = second compound 10 µM, first compound 1 µM
[29] = second compound 10 µM, first compound 3.16 µM
[30] = second compound 10 µM, first compound 10 µM
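Also: luminescence taken as a proxy for viable cell amount.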
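For viability, T/C in this document: percent of DMSO vehicle control where 100% means growth equal to vehicle.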

SMILES | pIC50 (second compound 0.1 µM) | pIC50 (second compound 0.316 µM) | pIC50 (second compound 1 µM) | pIC50 (second compound 3.16 µM) | pIC50 (second compound 10 µM) | viability, T/C [1] | viability, T/C [2] | viability, T/C [3] | viability, T/C [4] | viability, T/C [5] | viability, T/C [6] | viability, T/C [7] | viability, T/C [8] | viability, T/C [9] | viability, T/C [13] | viability, T/C [14] | viability, T/C [19] | viability, T/C [20] | viability, T/C [25] | viability, T/C [26] | other results
CC1(C)CCC(CN2CCN(c3ccc(C(=O)NS(=O)(=O)c4ccc(NCC5CCOCC5)c([N+](=O)[O-])c4)c(Oc4cnc5[nH]ccc5c4)c3)CC2)=C(c2ccc(Cl)cc2)C1 + CC(CO)NC(=O)c1cc(-c2ccc(Cl)cc2)nn(-c2cnn(C)c2)c1=O | 5.23 | 5.25 | 5.24 | 5.26 | 5.29 | 92.1% | 99.7% | 89.5% | 85.6% | 87.4% | 18.4% | 106% | 108% | 86.8% | 85.6% | 97.4% | 82.2% | 80.1% | 75.8% | 80.1% | viability, T/C [10]: 82.4%; viability, T/C [11]: 86%; viability, T/C [12]: 20.5%; viability, T/C [15]: 90.3%; viability, T/C [16]: 92.7%; viability, T/C [17]: 85.4%; viability, T/C [18]: 18.2%; viability, T/C [21]: 90.1%; viability, T/C [22]: 90.2%; viability, T/C [23]: 78.7%; viability, T/C [24]: 18.3%; viability, T/C [27]: 77.2%; viability, T/C [28]: 78.2%; viability, T/C [29]: 73.2%; viability, T/C [30]: 17.9%
COc1cc(Nc2ncc3c(n2)-c2ccc(Cl)cc2C(c2c(F)cccc2OC)=NC3)ccc1C(=O)O + CC(CO)NC(=O)c1cc(-c2ccc(Cl)cc2)nn(-c2cnn(C)c2)c1=O | 5.16 | 5.08 | 5.29 | 5.36 | 5.49 | 87.2% | 88.2% | 78.5% | 71% | 61.7% | 44.4% | 94.9% | 79.2% | 78.9% | 91.6% | 96.2% | 91.6% | 75.2% | 92% | 77.4% | viability, T/C [10]: 70.2%; viability, T/C [11]: 56.3%; viability, T/C [12]: 48.8%; viability, T/C [15]: 75.1%; viability, T/C [16]: 68.2%; viability, T/C [17]: 56.4%; viability, T/C [18]: 42.7%; viability, T/C [21]: 70.7%; viability, T/C [22]: 63.9%; viability, T/C [23]: 50.3%; viability, T/C [24]: 44.5%; viability, T/C [27]: 65%; viability, T/C [28]: 65%; viability, T/C [29]: 52.7%; viability, T/C [30]: 37.6%
Cn1ncnc1C1c2n[nH]c(=O)c3cc(F)cc(c23)NC1c1ccc(F)cc1 (stereo not given) + CC(CO)NC(=O)c1cc(-c2ccc(Cl)cc2)nn(-c2cnn(C)c2)c1=O | < 7.00 | < 7.00 | < 7.00 | < 7.00 | < 7.00 | 90.2% | 80.9% | – | – | – | – | 83.1% | 71.5% | – | 75.1% | 74.6% | 71.8% | 70.2% | 76.8% | 66.8% | viability, T/C (second compound 0.1 µM, first compound 0.000316 µM): 89.3%; viability, T/C (second compound 0.1 µM, first compound 0.001 µM): 86.6%; viability, T/C (second compound 0.1 µM, first compound 0.00316 µM): 99.1%; viability, T/C (second compound 0.1 µM, first compound 0.01 µM): 79.5%; viability, T/C (second compound 0.316 µM, first compound 0.000316 µM): 79.2%; viability, T/C (second compound 0.316 µM, first compound 0.001 µM): 95.7%; viability, T/C (second compound 0.316 µM, first compound 0.00316 µM): 83.3%; viability, T/C (second compound 0.316 µM, first compound 0.01 µM): 72.6%; viability, T/C (second compound 1 µM, first compound 0.000316 µM): 76.7%; viability, T/C (second compound 1 µM, first compound 0.001 µM): 91.2%; viability, T/C (second compound 1 µM, first compound 0.00316 µM): 88.7%; viability, T/C (second compound 1 µM, first compound 0.01 µM): 73.4%; viability, T/C (second compound 3.16 µM, first compound 0.000316 µM): 80.8%; viability, T/C (second compound 3.16 µM, first compound 0.001 µM): 83.7%; viability, T/C (second compound 3.16 µM, first compound 0.00316 µM): 80.4%; viability, T/C (second compound 3.16 µM, first compound 0.01 µM): 73.9%; viability, T/C (second compound 10 µM, first compound 0.000316 µM): 69.6%; viability, T/C (second compound 10 µM, first compound 0.001 µM): 74.3%; viability, T/C (second compound 10 µM, first compound 0.00316 µM): 79.7%; viability, T/C (second compound 10 µM, first compound 0.01 µM): 73.6%
NS(=O)(=O)OCC1CC(n2ccc3c(NC4CCc5ccccc54)ncnc32)CC1O (stereo not given) + CC(CO)NC(=O)c1cc(-c2ccc(Cl)cc2)nn(-c2cnn(C)c2)c1=O | 5.44 | 5.83 | 6.05 | 6.21 | 6.20 | 94.1% | 99.9% | 81.9% | 71% | 51.7% | 38.3% | 96.4% | 88.9% | 78.9% | 89% | 76.7% | 78.4% | 73.5% | 78.5% | 72.6% | viability, T/C [10]: 51.7%; viability, T/C [11]: 45%; viability, T/C [12]: 36.2%; viability, T/C [15]: 65.4%; viability, T/C [16]: 48.6%; viability, T/C [17]: 36.8%; viability, T/C [18]: 38.5%; viability, T/C [21]: 60.8%; viability, T/C [22]: 42.5%; viability, T/C [23]: 34.3%; viability, T/C [24]: 34.2%; viability, T/C [27]: 60.5%; viability, T/C [28]: 43.4%; viability, T/C [29]: 34.1%; viability, T/C [30]: 31.9%
